Measured values published in patent US10342796B2, “Acrylanilide derivative, preparation method, and applications thereof in pharmacy” (Ancureall Pharmaceutical (Shanghai) Co., Ltd., priority 2015, dated 2019).

What was measured:
Test in all cases: Growth inhibition GI50 in vitro (CCK8/MTT, 72 h)
Type in all cases: cell-based, human
N87 (HER2 Amp) = conditions: Homo sapiens; Table 13, 72 h; read-out: Range of GI50 N87 (HER2 Amp)
A549 (EGFR WT) = conditions: Homo sapiens, A549; Table 13, 72 h; read-out: Range of GI50 A549 (EGFR WT)
From the text: EGFR wild type cell lines: human epidermal cancer cell line A431 (EGFR WT, amplification and high expression, from Shanghai Cell Bank of Chinese Academy of Sciences and ATCC), NSCLC cell lines NCI-H460 (EGFR WT, Kras G61H and PI3KCA E545K mutants, ATCC) and NCI-H1299 (EGFR WT, ATCC), melanoma cell line A375 (EGFR WT and BRAF V600E mutant, from Shanghai Cell Bank of Chinese Academy of Sciences, ATCC), human lung cancer cell line NCI-H292 (EGFR WT, from human lung mucoepidermoid carcinoma/lymphatic metastasis, purchased from Shanghai Cell Bank of Chinese Academy of Sciences) were cultured with 1×RPMI1640 complete medium which was supplement with 10% FBS. NSCLC cell line A549 (EGFR WT and Kras G12S mutant, from Shanghai Cell Bank of Chinese Academy of Sciences) was cultured with 1×Ham'S F12K complete medium which was supplement with 10% FBS, 1% double-antibiotics and 2 mM glutamine.
(§1) The suspension cells were collected by centrifugation. The supernatant was discard and the cell pellet was resuspended and counted. Different cell concentrations (5˜10×10^4 cells/mL) were prepared according to the growth cycle of each cell line and then seeded on a 96-well plate (Corning), 100 μL/well. The cells were incubated over night at 37° C., 5% CO2. The compounds were added to the cells on the second day with 2 wells in parallel. The final concentration of organic solvent shall not exceed 1%. The cells were continually incubated for 72 h, and then subjected to MTT assay.
(§2) The present compounds and the reference compounds were dissolved with DMSO (Sigma), respectively. […] The storage concentration of compounds was 10 mM and kept at −20° C. They were diluted by 2 times or 10 times with serial dilution before using.
(§3) Dojindo CCK8 reagent kit was used as MTT assay. […] FC meter was used as microplate reader.
(§4) Adherent cell culture medium was discard and immediately replaced with fresh prepared medium which contains 10% CCK8 reagent (100 μL/well). For the suspension cells, CCK8 was directly added to 10% of the final concentration. The cells were continually incubated for 1˜4 h. When the color of control wells turned to dark yellow, the absorption value was measured at OD450 nm. The cell growth rate was calculated according to the following formula: cell growth rate (%)=100*(T−T0)/(C−T0), T=optical density of drug treatment cell well—optical density of blank control well; T0=optical density of cell well before drug treatment—optical density of blank control well; C=optical density of cell well of solvent control group—optical density of blank control well. […] The experiment was independently repeated 1˜3 times, and subject to biological statistical analysis.

H1975 (EGFR L858R/T790M) = conditions: Homo sapiens, NCI-H1975; Table 13, 72 h; read-out: Range of GI50 H1975 (EGFR L858R/T790M)
Description: (§5) PC-9ER is an acquired Erlotinib resistance cell line of PC-9 cells developed by the investor. […] The four cell lines above were cultured with 1×RPMI1640 complete medium (supplement with 10% FBS). Human colon cancer cell line SW48 (EGFR G719S positive, ATCC). was cultured with L15 complete medium (10% FB S).
as §1, §2, §3, §4

PC-9 (EGFR dE746-A750) = conditions: Homo sapiens; Table 13, 72 h; read-out: Range of GI50 PC-9 (EGFR dE746-A750)
Description: as §5, §1, §2, §3, §4

Row | GI50 (A549 (EGFR WT)) [nM] | GI50 (H1975 (EGFR L858R/T790M)) [nM] | GI50 (PC-9 (EGFR dE746-A750)) [nM] | Compound | GI50 (N87 (HER2 Amp)) [nM]
1 | > 1000 | 10 to 100 | 10 to 100 | C=CC(=O)Nc1cc(Nc2cc(Nc3cc(F)c(OCCOC)c(Cl)c3)ncn2)c(OC)cc1N(C)CCN(C)C [Compound 237, N-(5-(6-(3-chloro-5-fluoro-4-(2-methoxyl-ethoxyl)-phenylamino)-pyrimidin-4-yl-amino)-2-((2-dimethylamino-ethyl)-methyl-amino)-4-methoxyl-phenyl)-acrylamide] | 10 to 100
2 | > 1000 | 10 to 100 | < 10 | C=CC(=O)Nc1cc(Nc2cc(Nc3ccc(OC)c(Cl)c3)ncn2)c(OC)cc1OCCN(C)C [Compound 218, N-(5-(6-(3-chloro-4-methoxyl-phenylamino)-pyrimidin-4-ylamino)-2-(2-dimethylamino-ethoxyl)-4-methoxyl-phenyl)-acrylamide] | 10 to 100
3 | > 1000 | 10 to 100 | < 10 | C=CC(=O)Nc1cc(Nc2cc(N(C)c3cc(OC)c(Cl)cc3Cl)ncn2)c(OC)cc1N(C)CCN(C)C [Compound 249, N-(5-(6-((2,4-dichloro-5-methoxyl-phenyl)-methyl-amino)-pyrimidin-4-ylamino)-2-((2-dimethylamino-ethyl)-methyl-amino)-4-methoxyl-phenyl)-acrylamide] | < 10
4 | > 1000 | 10 to 100 | 10 to 100 | C=CC(=O)Nc1cc(Nc2cc(Nc3ccc(OCC4(C)COC4)c(Cl)c3)ncn2)c(OC)cc1N(C)CCN(C)C [Compound 252, N-(5-(6-(3-chloro-4-(3-methyl-oxetan-3-yl-methoxyl)-phenylamino)-pyrimidin-4-yl-amino)-2-((2-dimethylamino-ethyl)-methyl-amino)-4-methoxyl-phenyl)-acrylamide] | 10 to 100
5 | > 1000 | 10 to 100 | < 10 | C=CC(=O)Nc1cc(Nc2cc(Nc3ccc(OC)c(Br)c3)ncn2)c(OC)cc1N(C)CCN(C)C [Compound 224, N-(5-(6-(4-methoxyl-3-bromo-phenylamino)-pyrimidin-4-yl-amino)-2-((2-dimethylamino-ethyl)-methyl-amino)-4-methoxyl-phenyl)-acrylamide] | 10 to 100
6 | > 1000 | 10 to 100 | 10 to 100 | C=CC(=O)Nc1cc(Nc2cc(Nc3ccc(OC(F)(F)F)c(Cl)c3)ncn2)c(OC)cc1N(C)CCN(C)C [Compound 235, N-(5-(6-(3-chloro-4-trifluoromethoxy-phenylamino)-pyrimidin-4-yl-amino)-2-((2-dimethylamino-ethyl)-methyl-amino)-4-methoxyl-phenyl)-acrylamide] | 10 to 100
7 | > 1000 | 10 to 100 | 10 to 100 | C=CC(=O)Nc1cc(Nc2cc(Nc3cc(OC)c(Cl)cc3Cl)ncn2)c(OC)cc1OCCN1CCCCC1 [Compound 246] | 10 to 100
8 | > 1000 | 10 to 100 | 10 to 100 | C=CC(=O)Nc1cc(Nc2nccc(-n3ccc4c(-n5c(C)ccc5C)cc(Br)cc43)n2)c(OC)cc1N(C)CCN(C)C [Compound 214] | 10 to 100
9 | > 1000 | 10 to 100 | 10 to 100 | C=CC(=O)Nc1cc(Nc2cc(Nc3ccc(OC)c(C#N)c3)ncn2)c(OC)cc1N(C)CCN(C)C [Compound 255, N-(5-(6-(3-cyano-4-methoxyphenylamino)-pyrimidin-4-yl-amino)-2-((2-dimethylamino-ethyl)-methyl-amino)-4-methoxyl-phenyl)-acrylamide] | 10 to 100
10 | > 1000 | < 10 | < 10 | C#Cc1cc(Nc2cc(Nc3cc(NC(=O)C=C)c(N(C)CCN(C)C)cc3OC)ncn2)ccc1OC [Compound 251, N-(5-(6-(3-acetenyl-4-methoxyl-phenylamino)-pyrimidin-4-yl-amino)-2-((2-dimethylamino-ethyl)-methyl-amino)-4-methoxyl-phenyl)-acrylamide] | < 10
11 | > 1000 | 10 to 100 | 10 to 100 | C=CC(=O)Nc1cc(Nc2cc(Nc3ccc(OC)c(C(C)=O)c3)ncn2)c(OC)cc1N(C)CCN(C)C [Compound 256, N-(5-(6-(3-acetyl-4-methoxyphenylamino)-pyrimidin-4-yl-amino)-2-((2-dimethylamino-ethyl)-methyl-amino)-4-methoxyl-phenyl)-acrylamide] | 10 to 100
12 | > 1000 | 10 to 100 | < 10 | C=CC(=O)Nc1cc(Nc2cc(Nc3cc(OC)c(Cl)cc3Cl)ncn2)c(OC)cc1OCCCN1CCN(C)CC1 [Compound 248] | < 10
13 | > 1000 | 10 to 100 | 10 to 100 | C=CC(=O)Nc1cc(Nc2cc(Nc3ccc(OCc4nccs4)c(Cl)c3)ncn2)c(OC)cc1N(C)CCN(C)C [Compound 223, N-(5-(6-(3-chloro-4-(thiazol-2-ylmethoxy)-phenylamino)-pyrimidin-4-ylamino)-2-((2-dimethylamino-ethyl)-methyl-amino)-4-methoxyl-phenyl)-acrylamide] | 10 to 100
14 | > 1000 | 10 to 100 | 10 to 100 | C=CC(=O)Nc1cc(Nc2nccc(-n3ccc4c(OCC5CCCO5)cccc43)n2)c(OC)cc1N(C)CCN(C)C (stereo not drawn) [Compound 207, N-(5-(4-(4-((tetrahydrofuran-2-yl)-methoxyl)-1H-indol-1-yl)-pyrimidin-2-ylamino)-2-(2-(dimethylamino-ethyl)-methyl-amino)-4-methoxyl-phenyl)-acrylamide] | 10 to 100
15 | > 1000 | 10 to 100 | 10 to 100 | C=CC(=O)Nc1cc(Nc2cc(Nc3cc(OC)c(Cl)cc3Cl)ncn2)c(OC)cc1OCCN1CCCC1 [Compound 244, N-(5-(6-(2,4-dichloro-5-methoxyl-phenylamino)-pyrimidin-4-yl-amino)-2-(2-(pyrrolidin-1-yl)-ethoxyl)-4-methoxyl-phenyl)-acrylamide] | 10 to 100
16 | > 1000 | 10 to 100 | < 10 | C=CC(=O)Nc1cc(Nc2cc(Nc3ccc(F)c(C(F)(F)F)c3)ncn2)c(OC)cc1N(C)CCN(C)C [Compound 226, N-(5-(6-(4-fluoro-3-trifluoromethyl-phenylamino)-pyrimidin-4-yl-amino)-2-((2-dimethylamino-ethyl)-methyl-amino)-4-methoxyl-phenyl)-acrylamide] | 10 to 100
17 | > 1000 | 10 to 100 | 10 to 100 | C=CC(=O)Nc1cc(Nc2cc(Nc3cc(OC)c(Cl)cc3Cl)ncn2)c(OC)cc1OCCCN1CCCC1 [Compound 245] | 10 to 100
18 | – | 10 to 100 | 10 to 100 | C=CC(=O)Nc1cc(Nc2cc(Nc3ccc(OC)c(Cl)c3)ncn2)c(OC)cc1N(C)CCN1CCCC1 [Compound 225] | 10 to 100

Row | Compound | GI50 (A549 (EGFR WT)) [nM] | GI50 (H1975 (EGFR L858R/T790M)) [nM] | GI50 (PC-9 (EGFR dE746-A750)) [nM] | GI50 (N87 (HER2 Amp)) [nM]
19 | C=CC(=O)Nc1cc(Nc2cc(Nc3ccc(OCCC(C)C)c(Cl)c3)ncn2)c(OC)cc1N(C)CCN(C)C [Compound 219, N-(5-(6-(3-chloro-4-(3-methylbutoxy)-phenylamino)-pyrimidin-4-ylamino)-2-((2-dimethylaminoethyl)-methyl-amino)-4-methoxyphenyl)-acrylamide] | > 1000 | 10 to 100 | < 10 | 10 to 100
